# Measured values as given in PubChem BioAssay (NCI).
#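 Assay format: 96-well plates, 48-hour exposure. Here, GI50 denotes the concentration required for 50% inhibition of growth. TGI marks complete inhibition of growth.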
# Key:
# Experiment in all cases: NCI tumour cell line growth inhibition, 48 h
# MOLT-4 leukemia = system: MOLT-4 leukemia
# SW-620 colon = system: SW-620 colon
# HCT-116 colon = system: HCT-116 colon
# MDA-MB-435 = system: MDA-MB-435
# M14 melanoma = system: M14 melanoma
# NCI-H226 lung = system: NCI-H226 lung
# SNB-19 CNS = system: SNB-19 CNS
# OVCAR-4 ovarian = system: OVCAR-4 ovarian
# K-562 leukemia = system: K-562 leukemia
# COLO 205 colon = system: COLO 205 colon
# MDA-MB-468 breast = system: MDA-MB-468 breast
# KM12 colon = system: KM12 colon
# SK-MEL-28 melanoma = system: SK-MEL-28 melanoma
# HCT-15 colon = system: HCT-15 colon
# HCC-2998 colon = system: HCC-2998 colon
# RXF 393 renal = system: RXF 393 renal
# HOP-62 NSCLC = system: HOP-62 NSCLC
# UACC-257 melanoma = system: UACC-257 melanoma
# OVCAR-8 ovarian = system: OVCAR-8 ovarian
# DU-145 prostate = system: DU-145 prostate
# A549 NSCLC = system: A549 NSCLC
# SF-539 CNS = system: SF-539 CNS
# UO-31 renal = system: UO-31 renal
# SF-295 CNS = system: SF-295 CNS
# SF-268 CNS = system: SF-268 CNS
# OVCAR-5 ovarian = system: OVCAR-5 ovarian
# HT29 colon = system: HT29 colon
# SK-OV-3 ovarian = system: SK-OV-3 ovarian
# U251 CNS = system: U251 CNS
# A498 renal = system: A498 renal
# EKVX NSCLC = system: EKVX NSCLC
# SK-MEL-2 melanoma = system: SK-MEL-2 melanoma
# T-47D breast = system: T-47D breast
# NCI/ADR-RES ovarian = system: NCI/ADR-RES ovarian
# CAKI-1 renal = system: CAKI-1 renal
# LOX IMVI melanoma = system: LOX IMVI melanoma
# RPMI-8226 leukemia = system: RPMI-8226 leukemia
# SR leukemia = system: SR leukemia
# SNB-75 CNS = system: SNB-75 CNS
# NCI-H23 lung = system: NCI-H23 lung
# SN12C renal = system: SN12C renal
# HOP-92 NSCLC = system: HOP-92 NSCLC
# NCI-H460 lung = system: NCI-H460 lung
# HS 578T breast = system: HS 578T breast
# HL-60(TB) leukemia = system: HL-60(TB) leukemia
# UACC-62 melanoma = system: UACC-62 melanoma
# MDA-MB-231 breast = system: MDA-MB-231 breast
# NCI-H522 lung = system: NCI-H522 lung
# CCRF-CEM leukemia = system: CCRF-CEM leukemia
# ACHN renal = system: ACHN renal
# OVCAR-3 ovarian = system: OVCAR-3 ovarian
# MALME-3M melanoma = system: MALME-3M melanoma
# TK-10 renal = system: TK-10 renal
# BT-549 breast = system: BT-549 breast
# 786-0 renal = system: 786-0 renal
# PC-3 prostate = system: PC-3 prostate
# SK-MEL-5 melanoma = system: SK-MEL-5 melanoma
# MCF7 breast = system: MCF7 breast
# IGROV1 ovarian = system: IGROV1 ovarian
structure (smiles),measurement,setting,value
COc1ccc(C2(SCCNCc3cc(N(C)C)ccn3)c3ccccc3C=Cc3ccccc32)cc1,GI50,MOLT-4 leukemia,610 nM
same,TGI,MOLT-4 leukemia,12000 nM
same,GI50,SW-620 colon,74.6 nM
same,TGI,SW-620 colon,12500 nM
same,GI50,HCT-116 colon,40.4 nM
same,TGI,HCT-116 colon,11600 nM
same,GI50,MDA-MB-435,25.3 nM
same,TGI,MDA-MB-435,63.9 nM
same,GI50,M14 melanoma,34.7 nM
same,TGI,M14 melanoma,621 nM
same,GI50,NCI-H226 lung,4800 nM
same,TGI,NCI-H226 lung,19200 nM
same,GI50,SNB-19 CNS,534 nM
same,TGI,SNB-19 CNS,19100 nM
same,GI50,OVCAR-4 ovarian,5150 nM
same,TGI,OVCAR-4 ovarian,22000 nM
same,GI50,K-562 leukemia,40.7 nM
same,TGI,K-562 leukemia,17400 nM
same,GI50,COLO 205 colon,169 nM
same,TGI,COLO 205 colon,521 nM
same,GI50,MDA-MB-468 breast,50.9 nM
same,TGI,MDA-MB-468 breast,388 nM
same,GI50,KM12 colon,322 nM
same,TGI,KM12 colon,11700 nM
same,GI50,SK-MEL-28 melanoma,5290 nM
same,TGI,SK-MEL-28 melanoma,21200 nM
same,GI50,HCT-15 colon,51 nM
same,TGI,HCT-15 colon,13500 nM
same,GI50,HCC-2998 colon,93.2 nM
same,TGI,HCC-2998 colon,527 nM
same,GI50,RXF 393 renal,283 nM
same,TGI,RXF 393 renal,3390 nM
same,GI50,HOP-62 NSCLC,528 nM
same,TGI,HOP-62 NSCLC,17900 nM
same,GI50,UACC-257 melanoma,10800 nM
same,TGI,UACC-257 melanoma,23900 nM
same,GI50,OVCAR-8 ovarian,238 nM
same,TGI,OVCAR-8 ovarian,15700 nM
same,GI50,DU-145 prostate,335 nM
same,TGI,DU-145 prostate,3630 nM
same,GI50,A549 NSCLC,147 nM
same,TGI,A549 NSCLC,16800 nM
same,GI50,SF-539 CNS,227 nM
same,TGI,SF-539 CNS,594 nM
same,GI50,UO-31 renal,1760 nM
same,TGI,UO-31 renal,17800 nM
same,GI50,SF-295 CNS,268 nM
same,TGI,SF-295 CNS,14200 nM
same,GI50,SF-268 CNS,717 nM
same,TGI,SF-268 CNS,18500 nM
same,GI50,OVCAR-5 ovarian,364 nM
same,TGI,OVCAR-5 ovarian,12500 nM
same,GI50,HT29 colon,337 nM
same,TGI,HT29 colon,7000 nM
same,GI50,SK-OV-3 ovarian,497 nM
same,TGI,SK-OV-3 ovarian,13900 nM
same,GI50,U251 CNS,62 nM
same,TGI,U251 CNS,12100 nM
same,GI50,A498 renal,11500 nM
same,TGI,A498 renal,24900 nM
same,GI50,EKVX NSCLC,382 nM
same,TGI,EKVX NSCLC,19400 nM
same,GI50,SK-MEL-2 melanoma,252 nM
same,TGI,SK-MEL-2 melanoma,724 nM
same,GI50,T-47D breast,475 nM
same,TGI,T-47D breast,18700 nM
same,GI50,NCI/ADR-RES ovarian,205 nM
same,TGI,NCI/ADR-RES ovarian,513 nM
same,GI50,CAKI-1 renal,1330 nM
same,TGI,CAKI-1 renal,19200 nM
same,GI50,LOX IMVI melanoma,557 nM
same,TGI,LOX IMVI melanoma,12300 nM
same,GI50,RPMI-8226 leukemia,124 nM
same,TGI,RPMI-8226 leukemia,> 49000 nM
same,GI50,SR leukemia,57 nM
same,TGI,SR leukemia,> 33200 nM
same,GI50,SNB-75 CNS,176 nM
same,TGI,SNB-75 CNS,907 nM
same,GI50,NCI-H23 lung,463 nM
same,TGI,NCI-H23 lung,13900 nM
same,GI50,SN12C renal,290 nM
same,TGI,SN12C renal,15200 nM
same,GI50,HOP-92 NSCLC,1310 nM
same,TGI,HOP-92 NSCLC,6250 nM
same,GI50,NCI-H460 lung,281 nM
same,TGI,NCI-H460 lung,11200 nM
same,GI50,HS 578T breast,204 nM
same,TGI,HS 578T breast,1770 nM
same,GI50,HL-60(TB) leukemia,62.3 nM
same,TGI,HL-60(TB) leukemia,13700 nM
same,GI50,UACC-62 melanoma,460 nM
same,TGI,UACC-62 melanoma,17700 nM
same,GI50,MDA-MB-231 breast,143 nM
same,TGI,MDA-MB-231 breast,446 nM
same,GI50,NCI-H522 lung,90 nM
same,TGI,NCI-H522 lung,455 nM
same,GI50,CCRF-CEM leukemia,106 nM
same,TGI,CCRF-CEM leukemia,19300 nM
same,GI50,ACHN renal,1900 nM
same,TGI,ACHN renal,19900 nM
same,GI50,OVCAR-3 ovarian,342 nM
same,TGI,OVCAR-3 ovarian,12000 nM
same,GI50,MALME-3M melanoma,514 nM
same,TGI,MALME-3M melanoma,15800 nM
same,GI50,TK-10 renal,12100 nM
same,TGI,TK-10 renal,25800 nM
same,GI50,BT-549 breast,471 nM
same,TGI,BT-549 breast,9580 nM
same,GI50,786-0 renal,873 nM
same,TGI,786-0 renal,17200 nM
same,GI50,PC-3 prostate,395 nM
same,TGI,PC-3 prostate,6060 nM
same,GI50,SK-MEL-5 melanoma,319 nM
same,TGI,SK-MEL-5 melanoma,11800 nM
same,GI50,MCF7 breast,40 nM
same,TGI,MCF7 breast,13200 nM
same,GI50,IGROV1 ovarian,459 nM
same,TGI,IGROV1 ovarian,19200 nM
